These results are taken from patent US9133220B2, “Boron-containing 5-arylidene-3,5-dihydro-4H-imidazol-4-ones” (Evrogen Joint Stock Company, priority 2012, dated 2015).

Data set [1] is described as follows: Measuring spectral characteristics (absorption and emission maxima, extinction coefficients). Format: physicochemical. The procedure: (§1) To measure spectral characteristics of some compounds with the formula I weighted portions of compounds p-NH2-BDI-BF2, p-dimethylamino-BDI-BF2, p-diethylamino-BDI-BF2, p-HOBDI-BF2, di-F-p-HOBDI-BF2, p-diethylamino-BDI-dimethylaminoethenyl-BF2 and p-HOBDI-dimethylaminoethenyl-BF2 were dissolved in water, ethanol and acetonitrile. Absorption spectra were measured on Varian Cary 100 Bio spectrophotometer, fluorescence spectra were measured on Varian Cary Eclipse scanning spectrofluorometer.
The values of absorption and emission maxima and molar extinction coefficients for examples of compounds with the formula I in the indicated solvents are listed in a Table 2. Emission peaks of the investigated compounds settle into a rather wide range from 485 nm for p-HOBDI-BF2 to 598 nm for p-diethylamino-BDI-dimethylamino-ethenyl-BF2.

Data set [2] can be described thus: Quantum yield of fluorescence. Format: physicochemical. The procedure: as §1
The compounds p-NH2-BDI-BF2, p-HOBDI-BF2 (anionic form), di-Fp-HOBDI-BF2 (anionic form), p-diethylamino-BDI-dimethylaminoethenyl-BF2, p-HOBDI-dimethylaminoethenyl-BF2 (anionic form) have rather high quantum yields of fluorescence in water solutions.

For data set [3] the following is noted: cited from earlier work; for emission peak: widely used fluorescent dyes, approximate values.
The nature of data set [4]: Determination of solubility in water. Format: physicochemical. The conditions noted are these: thermodynamic from solid. The procedure:
To determine the solubility in water of compounds an excess amount of analyzed substance was put in a known volume of a solvent and stirred for 5 hours at r.t. The obtained mixture was centrifuged, and the concentration of a compound in mother liquor was measured with spectrophotometric method on the base of molar extinction coefficients data.

A short description of data set [5]: Photoacidity: acidity constants of ground and excited states. Format: physicochemical. The source says:
Photoacidity is an ability to dissociate with formation of H^+ ion under the action of visible light. Photoacidity is characterized by constants of acidity of ground and excited states. Förster's equation describes the relationship between acidity constants of ground and excited states and energy of transfer between the states.
For compounds of the formula I, containing phenolic OH-group, high photoacidity—an ability to dissociate with formation of H^+ ion under the action of visible light—is a distinctive feature. […] (^1)((Z)-4-(2-(difluoroboryl)-3,5-difluoro-4-hydroxybenzylidene)-1,2-dimethyl-1H-imidazole-5(4H)-one)

The mark [6] stands for this setting: water, neutral form line, starred: only emission of deprotonated form can be measured due to high photoacidity.
[7] abbreviates: acidic and neutral pH values, r.t.
Setting [8] is: acidic and neutral values of pH.

Structures are written as SMILES. In brackets after ≈: the same amount, converted by molar mass. Like-named read-outs stand apart in the source and are kept apart here. Marks after values point to notes of the source that are not given here.

Turning to `CC1=N/C(=C\c2ccc(N)cc2B(F)F)C(=O)N1C` [p-NH2-BDI-BF2, (Z)-4-(4-amino-2-(difluoroboryl)benzylidene)-1,2-dimethyl-1H-imidazole-5(4H)-one], the “shift of emission and absorption spectra with change of more polar solvent (water) to less polar (ethanol, acetonitrile)” value in data set [1] is listed as “hypsochromic shift”. For the same compound, the Abs. peak came to 451 nm in data set [1] (acetonitrile), 476 nm in data set [1] (ethanol) and 475 nm in data set [1] (water). For the same compound, the Emis. peak in data set [1] (acetonitrile) was determined as 518 nm; in data set [1] (ethanol) it was 532 nm; in data set [1] (water), 532 nm. The “Quantum yield of fluorescence” value in data set [2] (acetonitrile) stood at 0.62; in data set [2] (ethanol), 0.64; in data set [2] (water) it was 0.70.

Consider `CCN1C(=CC=CC2=[N+](CCCCCC(=O)O)c3ccc(S(=O)(=O)O)cc3C2(C)C)C(C)(C)c2cc(S(=O)(=O)[O-])ccc21` [Cy3], for which, in data set [3], the emission peak was 570 nm.

For the compound `CN(C)/C=C/C1=NC(=C\c2ccc(O)cc2B(F)F)/C(=O)N1C` [p-HOBDI-dimethylaminoethenyl-BF2, (Z)-4-(2-(difluoroboryl)-4-hydroxybenzylidene)-2-((E)-2-(dimethylamino)vynil)-1-methyl-1H-imidazole-5(4H)-one], the Abs. peak in data set [1] (acetonitrile, anionic form) is recorded as 555 nm; in data set [1] (acetonitrile, neutral form) it was 444 nm; in data set [1] (ethanol, anionic form) it was 529 nm; in data set [1] (ethanol, neutral form), 450 nm; in data set [1] (water, anionic form), 502 nm; in data set [1] (water, neutral form), 467 nm. The Emis. peak came to 598 nm in data set [1] (acetonitrile, anionic form); 502 nm in data set [1] (acetonitrile, neutral form); 587 nm in data set [1] (ethanol, anionic form); 505 nm in data set [1] (ethanol, neutral form); 570 nm in data set [1] (water, anionic form); 521 nm in data set [1] (water, neutral form). Moreover, the “shift of emission and absorption spectra with change of more polar solvent (water) to less polar (ethanol, acetonitrile)” value is “bathochromic shift” in data set [1] (anionic form) and “hypsochromic shift” in data set [1] (neutral form). In data set [2] (water, anionic form), the “Quantum yield of fluorescence” value was 0.27.

As for `CC1=N/C(=C\c2ccc(O)cc2)C(=O)N1C` [p-HOBDI, (Z)-4-(4-hydroxybenzylidene)-1,2-dimethyl-1H-imidazole-5(4H)-one], the Quantum yield entry in data set [3] (p-HOBDI, from D. Mandal et al., J. Phys. Chem. B 108, 1102 (2004), spans water, ethanol, acetonitrile columns) is “Quantum yield is less than 10^−4”.

Regarding `O=C1NC=N/C1=C\c1cccn1B(F)F` [(Z)-4-((1-(difluoroboryl)-1H-pyrrol-2-yl)methylene)-1H-imidazole-5(4H)-one], the “Quantum yield of fluorescence” value in data set [3] (comparison values for known fluorophores) is 0.81.

As to `CCN(CC)c1ccc(/C=C2N=C(/C=C/N(C)C)N(C)C\2=O)c(B(F)F)c1` [(Z)-4-(4-(diethylamino)-2-(difluoroboryl)benzylidene)-2-((E)-2-(dimethylamino)vynil)-1-methyl-1H-imidazole-5(4H)-one], the “shift of emission and absorption spectra with change of more polar solvent (water) to less polar (ethanol, acetonitrile)” value in data set [1] was “hypsochromic shift”. Moreover, the Abs. peak turned out to be 510 nm in data set [1] (acetonitrile), 525 nm in data set [1] (ethanol) and 525 nm in data set [1] (water). Moreover, the Emis. peak was 583 nm in data set [1] (acetonitrile), 588 nm in data set [1] (ethanol) and 598 nm in data set [1] (water). For the same compound, the “Quantum yield of fluorescence” value in data set [2] (water) amounted to 0.35.

Turning to `CC1=N/C(=C\c2cc(F)c(O)c(F)c2B(F)F)C(=O)N1C` [di-F-p-HOBDI-BF2, (Z)-4-(2-(difluoroboryl)-3,5-difluoro-4-hydroxybenzylidene)-1,2-dimethyl-1H-imidazole-5(4H)-one], the Abs. peak in data set [1] (acetonitrile, anionic form) stood at 519 nm; in data set [1] (acetonitrile, neutral form), 392 nm; in data set [1] (ethanol, anionic form) it was 503 nm; in data set [1] (ethanol, neutral form), 400 nm; in data set [1] (water, anionic form) it was 484 nm; in data set [1] (water, neutral form) it was 400 nm. For the same compound, the Emis. peak is 542 nm in data set [1] (acetonitrile, anionic form); 460 nm in data set [1] (acetonitrile, neutral form); 538 nm in data set [1] (ethanol, anionic form); 538* nm in data set [1] (ethanol, neutral form line, starred: only emission of deprotonated form can be measured due to high photoacidity); 532 nm in data set [1] (water, anionic form); 532* nm in data set [1] (setting [6]). Also, the ext. coef. in data set [1] (acetonitrile, neutral form) worked out at 26000 M⁻¹ cm⁻¹; in data set [1] (ethanol, anionic form), 45000 M⁻¹ cm⁻¹; in data set [1] (ethanol, neutral form), 21000 M⁻¹ cm⁻¹; in data set [1] (water, anionic form), 44400 M⁻¹ cm⁻¹; in data set [1] (water, neutral form), 32000 M⁻¹ cm⁻¹. For the same compound, the “shift of emission and absorption spectra with change of more polar solvent (water) to less polar (ethanol, acetonitrile)” value is reported as “bathochromic shift” in data set [1] (anionic form) and “hypsochromic shift” in data set [1] (neutral form). Further, the “Quantum yield of fluorescence” value in data set [2] (water, anionic form) was 0.73. Also, the solubility – broadly, the concentration that dissolves in the medium under given conditions – at 5 h was around 1000 µM (≈ 300 µg/mL) in data set [4] (setting [7]) and 1 µM (≈ 0.3 µg/mL) in data set [4] (setting [8]). For the same compound, the pKa (as a rule, the negative logarithm of the acid dissociation constant) in data set [5] (excited state) is below 0; in data set [5] (ground state, phenol group), 5.2. Also, the “pKa*” value is “lies in the negative region” in data set [5] (excited state, listed as (Z)-4-(2-(difluoroboryl)-3,5-difluoro-4-hydroxybenzylidene)-1,2-dimethyl-1H-imid) and “in the range of negative values” in data set [5] (excited state, listed as diF-p-HOBDI-BF2).

On to `O=C1OC2(c3ccc(O)cc3Oc3cc(O)ccc32)c2ccc(N=C=S)cc21` [FITC], for which the emission peak in data set [3] was 521 nm.

Consider `CC1=N/C(=C\c2ccc(N(C)C)cc2B(F)F)C(=O)N1C` [p-dimethylamino-BDI-BF2, (Z)-4-(4-(dimethylamino)-2-(difluoroboryl)benzylidene)-1,2-dimethyl-1H-imidazole-5(4H)-one], for which the “shift of emission and absorption spectra with change of more polar solvent (water) to less polar (ethanol, acetonitrile)” value in data set [1] is given as “hypsochromic shift”. Moreover, the figures for the Abs. peak in data set [1] (acetonitrile), in data set [1] (ethanol) and in data set [1] (water) were 483 nm, 498 nm and 507 nm, respectively. Further, the Emis. peak in data set [1] (acetonitrile) was 551 nm; in data set [1] (ethanol) it was 557 nm; in data set [1] (water), 565 nm. For the same compound, the “Quantum yield of fluorescence” value amounted to 0.49 in data set [2] (acetonitrile), 0.31 in data set [2] (ethanol) and 0.05 in data set [2] (water).

For `CCCCCCCCCCCCCCCCCCN1/C(=C\C=C\c2oc3ccccc3[n+]2CCCCCCCCCCCCCCCCCC)Oc2ccccc21.[O-][Cl+3]([O-])([O-])[O-]` [DiO], in data set [3], the emission peak is recorded as 501 nm.

In the case of `CC1=N/C(=C\c2cc(F)c(O)cc2B(F)F)C(=O)N1C` [F-p-HOBDI-BF2, (Z)-4-(2-(difluoroboryl)-5-fluoro-4-hydroxybenzylidene)-1,2-dimethyl-1H-imidazole-5(4H)-one], the Abs. peak in data set [1] (acetonitrile, anionic form) stood at 522 nm; in data set [1] (acetonitrile, neutral form) it was 397 nm; in data set [1] (ethanol, anionic form) it was 505 nm; in data set [1] (ethanol, neutral form), 408 nm; in data set [1] (water, anionic form), 478 nm; in data set [1] (water, neutral form), 392 nm. For the same compound, the Emis. peak in data set [1] (acetonitrile, anionic form) is 543 nm; in data set [1] (acetonitrile, neutral form), 468 nm; in data set [1] (ethanol, anionic form), 537 nm; in data set [1] (ethanol, neutral form) it was 482 nm; in data set [1] (water, anionic form), 528 nm; in data set [1] (setting [6]) it was 528* nm. For the same compound, the ext. coef. came to 28000 M⁻¹ cm⁻¹ in data set [1] (acetonitrile, neutral form); 48000 M⁻¹ cm⁻¹ in data set [1] (ethanol, anionic form); 24000 M⁻¹ cm⁻¹ in data set [1] (ethanol, neutral form); 38300 M⁻¹ cm⁻¹ in data set [1] (water, anionic form); 31500 M⁻¹ cm⁻¹ in data set [1] (water, neutral form). Besides, the “shift of emission and absorption spectra with change of more polar solvent (water) to less polar (ethanol, acetonitrile)” value is on record as “bathochromic shift” in data set [1] (anionic form) and “hypsochromic shift” in data set [1] (neutral form). In addition, the solubility at 5 h is around 1000 µM (≈ 282 µg/mL) in data set [4] (setting [7]) and 1 µM (≈ 0.282 µg/mL) in data set [4] (setting [8]).
